Laboratory results taken from patent US8609650B2, “Bridged bicyclic aryl and bridged bicyclic heteroaryl substituted triazoles useful as Axl inhibitors” (Rigel Pharmaceuticals, Inc., priority 2006, dated 2013).

Molecular target: T1, Axl (Homo sapiens, UniProt P30530)
T1 construct: endogenous in cells; host or cells: HeLa cells
T1 sequence (P30530 26-894): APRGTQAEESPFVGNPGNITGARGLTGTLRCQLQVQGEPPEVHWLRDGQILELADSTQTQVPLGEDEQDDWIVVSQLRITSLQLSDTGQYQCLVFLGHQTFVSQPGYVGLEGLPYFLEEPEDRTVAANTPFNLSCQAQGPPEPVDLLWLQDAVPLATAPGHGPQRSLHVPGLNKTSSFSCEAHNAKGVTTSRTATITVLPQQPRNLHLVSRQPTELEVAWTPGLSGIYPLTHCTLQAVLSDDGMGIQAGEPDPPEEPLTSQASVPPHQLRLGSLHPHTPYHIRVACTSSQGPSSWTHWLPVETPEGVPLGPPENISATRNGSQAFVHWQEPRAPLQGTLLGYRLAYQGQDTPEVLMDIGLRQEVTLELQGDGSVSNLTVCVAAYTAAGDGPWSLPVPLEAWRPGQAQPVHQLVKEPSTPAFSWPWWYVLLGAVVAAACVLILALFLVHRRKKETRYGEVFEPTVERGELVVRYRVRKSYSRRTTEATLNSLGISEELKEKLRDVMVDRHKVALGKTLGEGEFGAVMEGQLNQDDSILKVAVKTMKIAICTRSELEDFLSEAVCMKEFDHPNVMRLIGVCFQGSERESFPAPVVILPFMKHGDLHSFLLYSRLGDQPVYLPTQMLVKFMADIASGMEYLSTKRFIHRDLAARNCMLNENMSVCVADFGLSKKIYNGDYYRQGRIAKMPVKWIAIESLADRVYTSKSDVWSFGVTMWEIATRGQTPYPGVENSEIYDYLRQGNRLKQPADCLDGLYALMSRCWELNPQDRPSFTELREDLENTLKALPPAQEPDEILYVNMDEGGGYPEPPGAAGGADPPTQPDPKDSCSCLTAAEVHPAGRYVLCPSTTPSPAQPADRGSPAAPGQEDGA
Experiment: Phospho-Akt In-Cell Western Assay (ability to inhibit Axl activity)
Type: cell-based
Conditions: Hela cells, stimulated by Axl-antibody cross-linking, phospho-Akt chemiluminescence normalized to relative cell number
Method: The compounds of the invention were tested in the following assay for their ability to inhibit Axl activity.
Phospho-Akt In-Cell Western Assay
• Cell culture plate: 96 well assay plate (Corning 3610), white, clear bottom, tissue-culture treated. • Cells: Hela cells. • Starvation medium: For Axl stimulation: 0.5% FCS (fetal calf serum) in DMEM, plus Axl/Fc (extracellular domain of AXL fused to immunoglobulin Fc region) (R&D, 154-AL) 500 ng/mL. • For EGF (epidermal growth factor) stimulation: 0.5% FCS in DMEM (Dulbecco's modified Eagles medium). • Poly-L-Lysine 0.01% solution (the working solution): 10 μg/ml, dilute In PBS (phosphate buffered saline). • Axl antibody cross-linking: • 1st: Mouse anti-Axl (R&D, MAB154). • 2nd: Biotin-SP-conjugated AffiniPure goat anti-mouse IgG (H+L) (Jackson ImmunoResearch #115-065-003). • Fixing buffer: 4% formaldehyde in PBS. • Wash buffer: 0.1% TritonX-100 in PBS. • Quenching buffer: 3% H2O2, 0.1% Azide in wash buffer, Azide and hydrogen peroxide (H2O2) are added fresh. • Blocking buffer: 5% BSA in TBST (tris buffered saline plus 0.1% Tween 20). • Primary antibody: Rabbit anti-human Phospho-Akt antibody (Cell Signaling 9271): 1×250 diluted in blocking buffer. • Secondary antibody: HRP (horse radish peroxidase)-conjugated Goat anti-Rabbit secondary, stock solution: Jackson ImmunoResearch (Goat anti-Rabbit HRP, #111-035-144) 1:1 diluted in glycerol, store at −20° C. The working solution: 1×2000 dilution of stock in blocking buffer. • Chemiluminescent working solution (Pierce, 37030): SuperSignal ELISA (enzyme linked immunosorbant assay) Pico Chemiluminescent substrate. • Crystal Violet solution: Stock: 2.5% Crystal violet in methanol, filtered and kept at ambient temperature. The working solution: dilute the stock 1:20 with PBS immediately before use. • 10% SDS: working solution: 5% SDS (sodium dodecylsulfate), diluted in PBS Methods: Day 1:
A 96 well TC (tissue culture treated) plate was coated with 10 μg/mL poly-L-Lysine at 37° C. for 30 min, washed twice with PBS, and air-dried for 5 minutes before cells were added. Hela cells were seeded at 10,000 cells/well and the cells were starved in 100 μL starvation medium containing Axl/Fc for 24 hrs.
The cells were pre-treated with test compounds by adding 100 μL of 2× test compound to the starvation medium on the cells. The cells were incubated at 37° C. for 1 hr before stimulation.
The cells were stimulated by Axl-antibody cross-linking as follows: A 5×1st/2nd Axl antibody mixture was made (37.5 μg/mL 1st/100 μg/mL 2nd) in starvation medium and nutated at 4° C. with thorough mixing for 1-2 hours for clustering. The resulting mix was warmed to 37° C. 50 μL of 5× Axl 1st/2nd of antibody cluster was added to the cells and the cells were incubated at 37° C. for 5 min.
After 5 minutes stimulation, the plate was flicked to remove medium and the plate was tapped onto paper towels. Formaldehyde (4.0% in PBS, 100 μL) was added to fix the cells and the cells were incubated at ambient temperature for 20 min without shaking.
The cells were washed with a plate washer buffer to remove the formaldehyde solution. The plate was flicked to removed excess wash buffer and tapped onto paper towels. Quenching buffer (100 μL) was added to each well and the cells were incubated at ambient temperature for 20 minutes without shaking.
The cells were washed with a plate washer buffer to remove the quenching buffer. Blocking buffer (100 μL) was added and the cells were incubated at ambient temperature for at least an hour with gentle shaking.
The cells were washed with a plate washer buffer and diluted primary antibody (50 μL) was added to each well (blocking buffer was added to the negative control wells instead). The plates were incubated overnight at 4° C. with gentle shaking.
The wash buffer was removed, diluted secondary antibody (100 μL) was added, and the cells were incubated at ambient temperature for 1 hour with gentle shaking. […]

Compound	IC50 [nM]
Nc1nc(Nc2ccc3c(c2)CCC(=O)CC3)nn1-c1cc(-c2ccccc2)c2c(n1)C1CCN2CC1 [Compound 69, 1-(1,4-ethano-8-phenyl-1,2,3,4-tetrahydro-1,5-naphthyridin-6-yl)-N^3-(7-oxo-6,7,8,9-tetrahydro-5H-benzo[7]annulene-3-yl)-1H-1,2,4-triazole-3,5-diamine]	1000 to 10000
Nc1nc(Nc2ccc(N3CCC(N4CCCC4)CC3)c(F)c2)nn1-c1cc(-c2ccncc2)c2c(n1)C1CCN2CC1 [Compound 32, 1-(1,4-ethano-8-pyridin-4-yl-1,2,3,4-tetrahydro-1,5-naphthyridin-6-yl)-N^3-(3-fluoro-4-(4-(pyrrolidin-1-yl)piperidin-1-yl)phenyl)-1H-1,2,4-triazole-3,5-diamine]	< 1000
CCSc1nc2c(c(-n3nc(Nc4ccc(OCCN5CCCC5)cc4)nc3N)n1)C1CCC2C1 (centres unmarked) [Compound 2, 1-(2-ethylthio-5,8-methano-5,6,7,8-tetrahydroquinazolin-4-yl)-N^3-(4-(2-(pyrrolidin-1-yl)ethoxy)phenyl)-1H-1,2,4-triazole-3,5-diamine]	< 1000
CN1CCN(C2CCN(c3ccc(Nc4nc(N)n(-c5cc(-c6cccs6)c6c(n5)C5CCC6C5)n4)cc3F)CC2)CC1 (centres unmarked) [Compound 47, 1-(5,8-methano-4-thiophen-2-yl-5,6,7,8-tetrahydroquinoline-2-yl)-N^3-(3-fluoro-4-(4-(4-methylpiperazin-1-yl)piperidin-1-yl)phenyl)-1H-1,2,4-triazole-3,5-diamine]	< 1000
CN(C)C1CCN(c2ccc(Nc3nc(N)n(-c4cc(-c5cccs5)c5c(n4)C4CCC5C4)n3)cc2F)CC1 (centres unmarked) [Compound 54, 1-(5,8-methano-4-thiophen-2-yl-5,6,7,8-tetrahydroquinoline-2-yl)-N^3-(3-fluoro-4-(4-dimethylaminopiperidin-1-yl)phenyl)-1H-1,2,4-triazole-3,5-diamine]	< 1000
1-(5,8-dimethylmethano-8-methyl-5,6,7-trihydroquinazolin-2-yl)-N^3-(3-fluoro-4-(4-(pyrrolidin-1-yl)piperidin-1-yl)phenyl)-1H-1,2,4-triazole-3,5-diamine [Compound 21]	< 1000
Cc1cc(Nc2nc(N)n(-c3cc(-c4ccccc4)c4c(n3)C3CCN4CC3)n2)cnc1N1CCN(CC2CC2)CC1 [Compound 50, 1-(1,4-ethano-8-phenyl-1,2,3,4-tetrahydro-1,5-naphthyridin-6-yl)-N^3-(3-methyl-2-(4-cyclopropylmethylpiperazin-1-yl)pyridine-5-yl)-1H-1,2,4-triazole-3,5-diamine]	< 1000

More lines, now with the values ahead:

IC50 [nM]	Compound
> 20000	Nc1nc(Nc2ccc3c(c2)CCNC3)nn1-c1ncc2c(n1)C1CCC2C1 (centres unmarked) [Compound 13, 1-(5,8-methano-5,6,7,8-tetrahydroquinazolin-2-yl)-N^3-(1,2,3,4-tetrahydroisoquinolin-6-yl)-1H-1,2,4-triazole-3,5-diamine]
< 1000	Cc1csc2c(-n3nc(Nc4cnc5c(c4)CN4CCC5CC4)nc3N)ncnc12 [Compound 27, 1-(7-methylthieno[3,2-d]pyrimidin-4-yl)-N^3-(6,9-ethano-6,7,8,9-tetrahydro-5H-pyrido[3,2-c]azepin-3-yl)-1H-1,2,4-triazole-3,5-diamine]
< 1000	CN1CCCC(Oc2ccc(Nc3nc(N)n(-c4ncc5c(n4)C4CCC5C4)n3)cc2)C1 (centres unmarked) [Compound 3, (5,8-methano-5,6,7,8-tetrahydroquinazolin-2-yl)-N^3-(4-(1-methyl(piperidin-3-yl)oxy)phenyl)-1H-1,2,4-triazole-3,5-diamine]
< 1000	CCOC(=O)C1CCN(C2CCN(c3ccc(Nc4nc(N)n(-c5cc(-c6ccccc6)c6c(n5)C5CCN6CC5)n4)cc3F)CC2)CC1 [Compound 58, (1,4-ethano-8-phenyl-1,2,3,4-tetrahydro-1,5-naphthyridin-6-yl)-N^3-(3-fluoro-4-(4-(4-ethyloxycarbonylpiperidin-1-yl)piperidin-1-yl)phenyl)-1H-1,2,4-triazole-3,5-diamine]
< 1000	Nc1nc(Nc2ccc(N3CCN(C4CC5CCC4C5)CC3)cc2)nn1-c1ncc2c(n1)C1CCC2C1 (centres unmarked) [Compound 8, N^3-(4-(4-(bicyclo[2.2.1]heptan-2-yl)piperazin-1-yl)phenyl)-1-(5,8-methano-5,6,7,8-tetrahydroquinazolin-2-yl)-1H-1,2,4-triazole-3,5-diamine]
< 1000	Nc1nc(Nc2ccc3c(c2)CCC(N2CCCC2)CC3)nn1-c1cc(-c2cccs2)c2c(n1)C1CCC2C1 (centres unmarked) [Compound 48, 1-(5,8-methano-4-thiophen-2-yl-5,6,7,8-tetrahydroquinoline-2-yl)-N^3-(7-pyrrolidin-1-yl-6,7,8,9-tetrahydro-5H-benzo[7]annulene-3-yl)-1H-1,2,4-triazole-3,5-diamine]
< 1000	Nc1nc(Nc2ccc3c(c2)CCC(N2CCC(N4CCCC4)CC2)CC3)nn1-c1cc(-c2ccccc2)c2c(n1)C1CCN2CC1 (centres unmarked) [Compound 71, 1-(1,4-ethano-8-phenyl-1,2,3,4-tetrahydro-1,5-naphthyridin-6-yl)-N^3-(7-(4-pyrrolidin-1-ylpiperidin-1-yl)-6,7,8,9-tetrahydro-5H-benzo[7]annulene-3-yl)-1H-1,2,4-triazole-3,5-diamine]
< 1000	Nc1nc(Nc2ccc(N3CCN(C4CCCCCCC4)CC3)cc2)nn1-c1ncc2c(n1)C1CCC2C1 (centres unmarked) [Compound 9, N^3-(4-(4-cyclooctylpiperazin-1-yl)phenyl)-1-(5,8-methano-5,6,7,8-tetrahydroquinazolin-2-yl)-1H-1,2,4-triazole-3,5-diamine]
< 1000	Nc1nc(Nc2ccc(N3CCC(N4CCCC4)CC3)c(F)c2)nn1-c1cc(-c2cccs2)c2c(n1)C1CCN2CC1 [Compound 30, 1-(1,4-ethano-8-thiophen-2-yl-1,2,3,4-tetrahydro-1,5-naphthyridin-6-yl)-N^3-(3-fluoro-4-(4-(pyrrolidin-1-yl)piperidin-1-yl)phenyl)-1H-1,2,4-triazole-3,5-diamine]
< 1000	Cc1cc(Nc2nc(N)n(-c3cc(-c4cccs4)c4c(n3)C3CCC4C3)n2)cnc1N1CCN(CC2CC2)CC1 (centres unmarked) [Compound 52, 1-(5,8-methano-4-thiophen-2-yl-5,6,7,8-tetrahydroquinoline-2-yl)-N^3-(3-methyl-2-(4-cyclopropylmethylpiperazin-1-yl)pyridine-5-yl)-1H-1,2,4-triazole-3,5-diamine]
